Measurements reported in patent EP0219838A2, “Carbocyclic purine nucleosides, their production and use” (Takeda Chemical Industries, Ltd., priority 1985, dated 1987).
Converted amounts (≈) assume the structure as drawn. Read-outs that look alike come from different tables or passages of the source.

Assays:
Format in all cases: cell-based
Adenovirus, Type 3 = experiment: Antiadenovirus activity (reduction of viral cytopathogenic effect) in FL cells; conditions: Human mastadenovirus B, 192 h; 50% inhibitory dose; FL cells infected with 100 TCID50; observed eight days after the infection; read-out: ID50 (the source's name)
Text: FL cells were infected with 100 TCID₅₀ (50% tissueculture infected doses) of viruses and cultured with various concentrations of the compouns.

[1] = Cytotoxicity in non-infected control culture (FL cells); conditions: human, non-infected FL cell control culture, eight days
[2] = Cytotoxicity in non-infected control culture (Vero cells); conditions: monkey
Text: (§1) Vero cells were infected with 100 TCID₅₀ (50% tissue-culture infected doses) of viruses and cultured with various concentrations of the compounds.

[3] = test system: Herpes Simplex Virus Type 1, HF Strain; experiment: Inhibitory effect against herpes simplex virus (reduction of viral cytopathogenic effect) in Vero cells
Text: as §1

[4] = Human alphaherpesvirus 1, 72 h, concentration required to reduce the viral cytopathogenic effect by 50%, Vero cells infected with 100 TCID50, observed three days after the infection, read-out: ID50 (the source's name)
[5] = Human alphaherpesvirus 1, Vero, 72 h, read-out: ID50

Row | Structure (SMILES) | IC50 (Adenovirus, Type 3) [µg/mL] | MCC at 192 h [1] [µg/mL] | MCC at 72 h ([2]; vero cells) [µg/mL] | IC50 [3, 4] [µg/mL] | IC50 [3, 5] [µg/mL] | MCC at 72 h ([2]; minimum concentration to cause a visible disruption of normal cell morphology, non-infected Vero cells, three days, read-out: Cytotoxicity) [µg/mL]
1 | Nc1nc2c(ncn2[C@@H]2C[C@H](CO)[C@H](O)C2)c(=O)[nH]1 [9-[(1R, 3R, 4R)-4-hydroxymethyl-3-hydroxycyclopentan-1-yl]guanine] | 0.39 (≈ 1.47 µM) | 3.13 | 12.5 | 0.049 (≈ 0.185 µM) |  | 
2 | Nc1nc2c(ncn2COCCO)c(=O)[nH]1 [Acyclovir] | 200 (≈ 888 µM) | 400 | 800 | 3.13 (≈ 13.9 µM) |  | 
3 | Nc1ncnc2c1ncn2[C@@H]1O[C@H](CO)[C@@H](O)[C@@H]1O [Ara-A] |  |  | 100 |  | 12.5 (≈ 46.8 µM) | 
4 | Nc1ccn([C@@H]2O[C@H](CO)[C@@H](O)[C@@H]2O)c(=O)n1 [Ara-C] |  |  |  |  | 0.39 (≈ 1.6 µM) | 0.78
5 | O=c1[nH]c(=O)n([C@H]2C[C@H](O)[C@@H](CO)O2)cc1Br [BUDR] |  |  | 100 | 25 (≈ 81.4 µM) |  | 
6 | O=c1[nH]c(=O)n([C@H]2C[C@H](O)[C@@H](CO)O2)cc1I [IUDR] |  |  | 200 | 50 (≈ 141 µM) |  | 
